Legend:
CDK1/Cyclin B = target: T1, CDK1/Cyclin B (Homo sapiens, UniProt P06493); assay: Enzymatic assay for CDK1 (LANCE Ultra kinase assay, FRET based); assay type: biochemical; settings: ATP at Km; read-out: CDK1 enzymatic activity IC50
T1 construct: purchased Invitrogen PR4768C
Method in brief: (§1)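 Purified CDK–cyclin enzyme, ATP at Km; ULight peptide substrate; TR-FRET via Eu anti-phospho-Ab; inhibition scored.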

CDK2/Cyclin A = target: T2, CDK2/Cyclin A (Homo sapiens, UniProt P24941); assay: Enzymatic assay for CDK2 (LANCE Ultra kinase assay, FRET based); assay type: biochemical; settings: ATP at Km
T2 construct: purchased Invitrogen PV6290
Method in brief: (§2)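 TR-FRET kinase assay at ATP Km with ULight-MBP peptide (68 nM) and Eu-anti-phospho-MBP antibody; CDK2/Cyclin A at […], CDK5/p25 at […]. 8-dose 4-fold compound dilutions; 60 min kinase reaction at 23° C., EDTA stop, 60 min detection, read at 615/665 nm.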

CDK5/p25 = target: T3, CDK5/p25 (Homo sapiens, UniProt Q00535); assay: Enzymatic assay for CDK5 (LANCE Ultra kinase assay, FRET based); assay type: biochemical; settings: ATP at Km
T3 construct: purchased Invitrogen PR8543B
Method in brief: as §2

CDK7/Cyclin H/MNAT1 = target: T4, CDK7/Cyclin H/MNAT1 (Homo sapiens, UniProt P50613); assay: Enzymatic assay for CDK7 (LANCE Ultra kinase assay, FRET based); assay type: biochemical; settings: for IC50: ATP at Km
T4 construct: purchased Invitrogen PR6749B
Method in brief: as §1

A2780 = A2780 viability assay (CellTiter-Glo, 72 hours); assay type: cell-based; settings: Homo sapiens; A2780 cells
Method in brief: (§3)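 RPMI-1640/10% FBS; plate cells (MV4-11 1×10^4, OVCAR-3 5×10^3, A2780 1×10^3 per well); 24 h later add compound 0.0015–10 uM; 72 h, 37° C; CellTiter-Glo luminescence, duplicate wells.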

OVCAR-3 = OVCAR-3 viability assay (CellTiter-Glo, 72 hours); assay type: cell-based; settings: Homo sapiens; OVCAR-3 cells
Method in brief: as §3

T3 sequence (Q00535 whole entry): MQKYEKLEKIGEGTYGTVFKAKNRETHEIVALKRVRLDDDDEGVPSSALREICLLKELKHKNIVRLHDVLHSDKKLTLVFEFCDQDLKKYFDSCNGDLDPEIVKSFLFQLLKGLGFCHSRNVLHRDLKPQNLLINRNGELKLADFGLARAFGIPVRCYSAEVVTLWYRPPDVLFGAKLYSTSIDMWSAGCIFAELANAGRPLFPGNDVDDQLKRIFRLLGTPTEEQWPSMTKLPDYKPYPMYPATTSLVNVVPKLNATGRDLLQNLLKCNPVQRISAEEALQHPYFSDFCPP
T3 sequence (Q15078 99-307 partner limits assumed): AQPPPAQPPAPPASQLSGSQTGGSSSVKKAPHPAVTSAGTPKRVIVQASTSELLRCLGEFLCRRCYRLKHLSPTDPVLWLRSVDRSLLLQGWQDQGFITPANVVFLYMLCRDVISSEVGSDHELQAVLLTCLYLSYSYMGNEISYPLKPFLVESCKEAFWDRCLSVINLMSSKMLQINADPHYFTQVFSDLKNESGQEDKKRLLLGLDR
T1 sequence (P06493 whole entry): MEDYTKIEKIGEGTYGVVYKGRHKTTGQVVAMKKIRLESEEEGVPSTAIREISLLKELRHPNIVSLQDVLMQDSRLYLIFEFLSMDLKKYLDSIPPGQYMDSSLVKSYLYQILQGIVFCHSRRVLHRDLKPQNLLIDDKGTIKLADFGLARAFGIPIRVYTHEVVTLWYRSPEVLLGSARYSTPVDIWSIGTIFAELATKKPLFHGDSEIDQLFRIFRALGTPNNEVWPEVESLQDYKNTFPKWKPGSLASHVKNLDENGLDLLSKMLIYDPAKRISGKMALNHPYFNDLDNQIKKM
T1 sequence (P14635 whole entry partner): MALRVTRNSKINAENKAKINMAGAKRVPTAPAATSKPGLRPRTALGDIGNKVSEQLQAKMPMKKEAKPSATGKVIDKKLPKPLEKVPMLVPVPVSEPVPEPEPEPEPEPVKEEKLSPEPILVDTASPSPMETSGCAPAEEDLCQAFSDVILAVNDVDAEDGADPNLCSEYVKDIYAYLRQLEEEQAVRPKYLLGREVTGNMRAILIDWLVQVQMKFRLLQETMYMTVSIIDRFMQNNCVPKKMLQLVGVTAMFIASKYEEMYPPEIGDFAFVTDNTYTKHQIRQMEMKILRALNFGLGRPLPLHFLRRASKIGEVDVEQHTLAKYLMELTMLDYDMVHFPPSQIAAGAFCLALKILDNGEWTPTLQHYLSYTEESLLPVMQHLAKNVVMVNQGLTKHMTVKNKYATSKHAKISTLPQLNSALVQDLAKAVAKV
T4 sequence (P50613 whole entry): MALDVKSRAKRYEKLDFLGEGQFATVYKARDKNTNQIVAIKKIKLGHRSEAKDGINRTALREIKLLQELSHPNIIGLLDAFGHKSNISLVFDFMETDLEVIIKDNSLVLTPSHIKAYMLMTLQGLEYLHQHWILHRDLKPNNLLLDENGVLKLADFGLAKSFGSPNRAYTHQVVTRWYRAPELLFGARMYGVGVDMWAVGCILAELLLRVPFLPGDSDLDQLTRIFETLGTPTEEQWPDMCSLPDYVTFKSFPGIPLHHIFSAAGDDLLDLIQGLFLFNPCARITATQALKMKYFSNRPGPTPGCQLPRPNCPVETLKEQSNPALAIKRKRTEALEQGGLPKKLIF
T4 sequence (P51946 whole entry partner): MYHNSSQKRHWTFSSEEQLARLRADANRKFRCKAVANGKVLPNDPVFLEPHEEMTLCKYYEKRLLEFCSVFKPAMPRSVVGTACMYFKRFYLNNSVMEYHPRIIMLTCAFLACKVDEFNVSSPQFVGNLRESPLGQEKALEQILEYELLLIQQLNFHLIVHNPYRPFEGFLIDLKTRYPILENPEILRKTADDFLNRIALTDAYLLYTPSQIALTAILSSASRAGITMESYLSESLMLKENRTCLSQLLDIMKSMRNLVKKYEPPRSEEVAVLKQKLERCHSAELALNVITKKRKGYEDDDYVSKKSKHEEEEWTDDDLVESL
T4 sequence (P51948 whole entry partner): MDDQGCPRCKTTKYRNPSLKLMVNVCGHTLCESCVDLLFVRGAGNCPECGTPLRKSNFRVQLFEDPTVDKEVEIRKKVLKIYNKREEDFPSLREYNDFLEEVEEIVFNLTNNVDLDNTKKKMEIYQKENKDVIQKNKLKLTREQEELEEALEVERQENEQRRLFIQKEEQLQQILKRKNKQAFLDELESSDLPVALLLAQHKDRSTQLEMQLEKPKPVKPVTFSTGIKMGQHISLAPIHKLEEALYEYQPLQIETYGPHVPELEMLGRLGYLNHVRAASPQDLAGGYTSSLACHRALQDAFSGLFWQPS

SMILES | IC50 (CDK1/Cyclin B) | IC50 (CDK2/Cyclin A) | IC50 (CDK5/p25) | IC50 (CDK7/Cyclin H/MNAT1) | CDK1/CDK7: Selectivity of CDK7 inhibition over CDK1 inhibition (CDK7/Cyclin H/MNAT1) | CDK2/CDK7: Selectivity of CDK7 inhibition over CDK2 inhibition (CDK7/Cyclin H/MNAT1) | CDK5/CDK7: Selectivity of CDK7 inhibition over CDK5 inhibition (CDK7/Cyclin H/MNAT1) | IC50 (A2780) | IC50 (OVCAR-3)
CC(C)c1cnn2c(NCc3ccccc3-c3nccc4cc(NC(=O)/C=C/CN(C)C)ccc34)nc(NC3CC4CCC(C3)N4C)nc12 (stereo not drawn) [Compound 130] | > 1000 nM | > 1000 nM | > 1000 nM | < 100 nM | A (A indicates [fold] > 500) | A (A indicates [fold] > 500) | A (A indicates [fold] > 500) | < 1000 nM | 1000 to 10000 nM
CC(C)c1cnn2c(NCc3ccccc3-c3nccc4cc(NC(=O)/C=C/CN(C)C)ccc34)nc(NCC3CCN(C)CC3)nc12 [Compound 133] | > 1000 nM | > 1000 nM | > 1000 nM | < 100 nM | A (A indicates [fold] > 500) | A (A indicates [fold] > 500) | A (A indicates [fold] > 500) | < 1000 nM | < 1000 nM
C=C(F)C(=O)Nc1ccc2c(-c3ccccc3CNc3nc(O[C@@H]4CCCNC4)nc4c(C(C)C)cnn34)nccc2c1 [Compound 137] | > 1000 nM | > 1000 nM | > 1000 nM | < 100 nM | A (A indicates [fold] > 500) | A (A indicates [fold] > 500) | A (A indicates [fold] > 500) | < 1000 nM | < 1000 nM
CC(C)c1cnn2c(NCc3ccccc3-c3nccc4cc(NC(=O)/C=C/CN(C)C)ccc34)nc(NC3CCC(F)(F)CC3)nc12 [Compound 147] | > 1000 nM | > 1000 nM | > 1000 nM | < 100 nM | A (A indicates [fold] > 500) | A (A indicates [fold] > 500) | A (A indicates [fold] > 500) | < 1000 nM | < 1000 nM
CC(C)c1cnn2c(NCc3ccccc3-c3nccc4cc(NC(=O)/C=C/CN(C)C)ccc34)nc(N[C@@H]3CCCNC3)nc12 [Compound 150] | > 1000 nM | > 1000 nM | > 1000 nM | < 100 nM | A (A indicates [fold] > 500) | A (A indicates [fold] > 500) | A (A indicates [fold] > 500) | < 1000 nM | < 1000 nM
CC(C)c1cnn2c(NCc3ccccc3-c3nccc4cc(NC(=O)/C=C/CN(C)C)ccc34)nc(N[C@H]3CC[C@H](C)NC3)nc12 [Compound 151] | > 1000 nM | > 1000 nM | > 1000 nM | < 100 nM | A (A indicates [fold] > 500) | A (A indicates [fold] > 500) | A (A indicates [fold] > 500) | < 1000 nM | < 1000 nM
Cc1cc(NCc2ccccc2-c2nccc3cc(NC(=O)/C=C/CN(C)C)ccc23)n2ncc(C(C)C)c2n1 [Compound 153] | > 1000 nM | > 1000 nM | > 1000 nM | < 100 nM | A (A indicates [fold] > 500) | A (A indicates [fold] > 500) | A (A indicates [fold] > 500) | < 1000 nM | < 1000 nM
CC(C)c1cnn2c(NCc3ccccc3-c3nccc4cc(NC(=O)/C=C/CN(C)C)ccc34)nc(N[C@@H]3CC[C@@H](C)NC3)nc12 [Compound 154] | > 1000 nM | > 1000 nM | > 1000 nM | < 100 nM | A (A indicates [fold] > 500) | A (A indicates [fold] > 500) | A (A indicates [fold] > 500) | < 1000 nM | 1000 to 10000 nM
C=C(F)C(=O)Nc1ccc2c(-c3ccccc3CNc3cc(C)nc4c(C(C)C)cnn34)nccc2c1 [Compound 156] | > 1000 nM | > 1000 nM | > 1000 nM | 100 to 1000 nM | B (B indicates 50 < [fold] ≤ 500) | B (B indicates 50 < [fold] ≤ 500) | B (B indicates 50 < [fold] ≤ 500) | < 1000 nM | 1000 to 10000 nM
C=C(F)C(=O)Nc1ccc2c(-c3ccccc3CNc3nc(NC[C@@H]4CCNC[C@H]4O)nc4c(C(C)C)cnn34)nccc2c1 [Compound 157] | > 1000 nM | > 1000 nM | > 1000 nM | < 100 nM | B (B indicates 50 < [fold] ≤ 500) | B (B indicates 50 < [fold] ≤ 500) | B (B indicates 50 < [fold] ≤ 500) | < 1000 nM | 1000 to 10000 nM
C=C(F)C(=O)Nc1ccc2c(-c3ccccc3CNc3nc(NC[C@H]4CCNC[C@H]4O)nc4c(C(C)C)cnn34)nccc2c1 [Compound 158] | > 1000 nM | > 1000 nM | > 1000 nM | < 100 nM | A (A indicates [fold] > 500) | A (A indicates [fold] > 500) | A (A indicates [fold] > 500) | < 1000 nM | < 1000 nM
C=C(F)C(=O)Nc1ccc2c(-c3ccccc3CNc3nc(O[C@H]4CCCNC4)nc4c(C(C)C)cnn34)nccc2c1 [Compound 159] | > 1000 nM | > 1000 nM | > 1000 nM | 100 to 1000 nM | B (B indicates 50 < [fold] ≤ 500) | B (B indicates 50 < [fold] ≤ 500) | B (B indicates 50 < [fold] ≤ 500) | < 1000 nM | 1000 to 10000 nM
C=C(F)C(=O)Nc1ccc2c(-c3ccccc3CNc3nc(NCC4CCNCC4O)nc4c(C(C)C)cnn34)nccc2c1 (stereo not drawn) [Compound 160] | > 1000 nM | > 1000 nM | > 1000 nM | < 100 nM | A (A indicates [fold] > 500) | A (A indicates [fold] > 500) | A (A indicates [fold] > 500) | < 1000 nM | < 1000 nM
C=C(F)C(=O)Nc1ccc2c(-c3ccccc3CNc3nc(N[C@H]4CCCNC4)nc4c(C(C)C)cnn34)nccc2c1 [Compound 161] | > 1000 nM | > 1000 nM | > 1000 nM | < 100 nM | A (A indicates [fold] > 500) | A (A indicates [fold] > 500) | A (A indicates [fold] > 500) | < 1000 nM | < 1000 nM

From patent US12606561B2, “Substituted pyrazolo[1,5-a][1,3,5]triazines as CDK inhibitors” (QURIENT CO., LTD., priority 2018, dated 2026)
